Read-outs that look alike come from different tables or passages of the source.
Experiments:
[1] = system: HepG2 cells; experiment: HepG2 cytotoxicity assay; details: for Unified cytotox: HepG2 values of the three screens unified; for IC50: read-out: HepG2 cytotoxicity assay IC50, dose response confirmation
Procedure, shortened: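 Cells at 2,500 per well in MEM with 10% fetal bovine serum and 1% NEAA were exposed to test compounds for 48 h at 37°C, 5% CO2. Viability was read by fluorescence, with percent inhibition calculated against 50 μM doxorubicin (positive) and DMSO (negative) controls.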

[2] = system: 3D7-strain P. falciparum asexual parasites; experiment: P. falciparum asexual growth inhibition assay (Pf GIA); type: cell-based, Plasmodium falciparum; details: dose response confirmation; read-out: Pf asexual growth inhibition assays IC50
Procedure, shortened: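 Parasites at 0.25% parasitemia, 2% hematocrit in Albumax-supplemented RPMI were exposed to compounds in dose response for 72 h at 37°C under 5% CO2/5% O2. Viability was read as LDH activity (NBT/diaphorase, A650 after freeze-thaw). Percent inhibition was calculated against chloroquine and DMSO controls, mean of three biological replicates.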

[3] = system: P. falciparum female gametocytes; set-up: method as in Miguel-Blanco et al 2017; details: ref Miguel-Blanco et al 2017, read-out: Pf FGAA IC50, cited from earlier work
[4] = system: HepG2 cells; details: ref Miguel-Blanco et al 2017, cited from earlier work
[5] = system: P. falciparum female gametocytes; experiment: P. falciparum female gametogenesis assay (Pf FGAA); details: 1: YES, 0: NO
[6] = system: P. berghei ookinete development; details: for Is compound selective in assay? Pb ODA active?: 1: YES, 0: NO; for % inhibition, Replicate A / % inhibition, Replicate B: primary screen at 1 μM
[7] = read-out: Pb ODA IC50, this manuscript
[8] = read-out: Pb Ookinete development assay IC50, dose response confirmation
[9] = HepG2 value reported with Pf FGAA screen

SMILES	Is compound selective in assay? Pf FGAA active? [5]	IC50 ([3]; TCAMS library screen) [nM]	HepG2 cytoxicity (Pf FGAA screen) [4, 9] [µM]	also measured
Cc1ccnc(NC(c2cccc(Cl)c2Cl)c2ccc3cccnc3c2O)c1 (stereo not shown) [TCMDC-123997]	1 (1: YES)	–	–	HepG2 cytoxicity (Pb ODA, this manuscript) [1]: 2.88 µM; Unified cytotox [1]: 24.29 µM; IC50 [1]: 2880 nM; IC50 [2]: 1990 nM; IC50 [3]: 1910 nM; HepG2 cytoxicity (Pf FGAA screen) ([4]; HepG2): 45.69 µM; Is compound selective in assay? Pb ODA active? [6]: 0 (0: NO); % inhibition, Replicate A [6]: 48.46%; % inhibition, Replicate B [6]: 53.18%; IC50 [6, 7]: 3500 nM; IC50 [6, 8]: 3500 nM
Cc1ccc(-n2c(Sc3ncnc4sccc34)nnc2N2CCCC2)cc1 [TCMDC-125247]	1 (1: YES)	–	–	HepG2 cytoxicity (Pb ODA, this manuscript) [1]: 74.13 µM; Unified cytotox [1]: 81.63 µM; IC50 [1]: 74100 nM; IC50 [2]: 275 nM; IC50 [3]: 490 nM; HepG2 cytoxicity (Pf FGAA screen) ([4]; HepG2): 89.13 µM; Is compound selective in assay? Pb ODA active? [6]: 1 (1: YES); % inhibition, Replicate A [6]: 123.83%; % inhibition, Replicate B [6]: 128.92%; IC50 [6, 7]: 220 nM; IC50 [6, 8]: 222 nM
O=C(Nc1nc(-c2ccccn2)cs1)c1ccc(S(=O)(=O)N2CCc3ccccc32)cc1 [TCMDC-125432]	1 (1: YES)	–	–	HepG2 cytoxicity (Pb ODA, this manuscript) [1]: 4.22 µM; Unified cytotox [1]: 16.72 µM; IC50 [1]: 4220 nM; IC50 [2]: 3850 nM; IC50 [3]: 1070 nM; HepG2 cytoxicity (Pf FGAA screen) ([4]; HepG2): 29.22 µM; Is compound selective in assay? Pb ODA active? [6]: 0 (0: NO); % inhibition, Replicate A [6]: 17.85%; % inhibition, Replicate B [6]: 54.79%; IC50 [6, 7]: 2400 nM; IC50 [6, 8]: 2400 nM
Oc1c(C(Nc2nc3ccccc3s2)c2ccccc2)ccc2cccnc12 (stereo not shown) [TCMDC-125565]	0 (0: NO)	–	–	HepG2 cytoxicity (Pb ODA, this manuscript) [1]: 2.34 µM; Unified cytotox [1]: 2.34 µM; IC50 [1]: 2340 nM; IC50 [2]: 2390 nM; IC50 [3]: 3030 nM; Is compound selective in assay? Pb ODA active? [6]: 0 (0: NO); % inhibition, Replicate A [6]: 27.85%; % inhibition, Replicate B [6]: 50.32%; IC50 [6, 7]: 4000 nM; IC50 [6, 8]: 4000 nM
CCCC(N)C(=O)NC1CCN(c2c(F)c(N)c3c(=O)c(C(=O)O)cn4c3c2Oc2ccccc2-4)C1.Cl (stereo not shown) [TCMDC-125701]	0 (0: NO)	–	–	HepG2 cytoxicity (Pb ODA, this manuscript) [1]: 3.63 µM; Unified cytotox [1]: 2.62 µM; IC50 [1]: 3630 nM; IC50 [2]: 56 nM; IC50 [3]: 1140 nM; HepG2 cytoxicity (Pf FGAA screen) ([4]; HepG2): 1.61 µM; Is compound selective in assay? Pb ODA active? [6]: 0 (0: NO); % inhibition, Replicate A [6]: 70.26%; % inhibition, Replicate B [6]: 78.60%; IC50 [6, 8]: 900 nM
COc1ccc2nc3cc(Cl)ccc3c(N)c2c1.Cl [TCMDC-125835]	0 (0: NO)	–	–	HepG2 cytoxicity (Pb ODA, this manuscript) [1]: 6.17 µM; Unified cytotox [1]: 3.87 µM; IC50 [1]: 6170 nM; IC50 [2]: 29 nM; IC50 [3]: 670 nM; HepG2 cytoxicity (Pf FGAA screen) ([4]; HepG2): 1.57 µM; Is compound selective in assay? Pb ODA active? [6]: 0 (0: NO); % inhibition, Replicate A [6]: 74.62%; % inhibition, Replicate B [6]: 77.49%; IC50 [6, 7]: 6320 nM; IC50 [6, 8]: 6320 nM
COc1cc(CNCCCCCCNCc2cc(OC)c3ccccc3c2OC)c(OC)c2ccccc12.CS(=O)(=O)O [TCMDC-137502]	0 (0: NO)	1670	3.67	–
Clc1ccc(/N=C(/NCCCCCCCN/C(=N\c2ccc(Cl)cc2)Nc2ccc(Cl)cc2)Nc2ccc(Cl)cc2)cc1 [TCMDC-137529]	0 (0: NO)	580	2.00	–
CC(CO)(CO)NCc1cc2c3ccccc3c(CNC(C)(CO)CO)cc2c2ccccc12.CS(=O)(=O)O [TCMDC-137752]	0 (0: NO)	4420	7.33	–
Clc1ccc(Nc2nc3ccc(Cl)cc3nc2Nc2ccc(Cl)cc2)cc1 [TCMDC-137772]	0 (0: NO)	1910	7.86	–
Clc1nc(Cl)c2c(ccn2Cc2ccccc2)n1 [TCMDC-137801]	1 (1: YES)	1460	>100	–
CCCCSc1c(CNCCCCCCNCc2ccc3ccccc3c2SCCCC)ccc2ccccc12.CS(=O)(=O)O [TCMDC-137825]	0 (0: NO)	970	2.76	–
COc1c(CNCCCCCCNCc2c(OC)c(OC)c3ccccc3c2OC)c(OC)c2ccccc2c1OC.CS(=O)(=O)O [TCMDC-137837]	0 (0: NO)	3690	4.42	–
Nc1nc(N)c2c(ccc3[nH]c(-c4ccccc4Cl)nc32)n1 [TCMDC-137840]	0 (0: NO)	4420	2.32	–
CCOc1cc2ccccc2cc1CNCCCCCCNCc1cc2ccccc2cc1OCC.CS(=O)(=O)O [TCMDC-137940]	0 (0: NO)	1290	6.06	–
COc1cc2c(OC)cccc2cc1CNCCCCCCNCc1cc2cccc(OC)c2cc1OC.CS(=O)(=O)O [TCMDC-137945]	0 (0: NO)	1820	4.90	–

SMILES	Is compound selective in assay? Pf FGAA active? [5]	IC50 ([3]; TCAMS library screen) [nM]	HepG2 cytoxicity (Pf FGAA screen) [4, 9] [µM]	also measured
CCCOc1c(CCNCCCCNCCc2ccc3ccccc3c2OCCC)ccc2ccccc12.CS(=O)(=O)O [TCMDC-137950]	0 (0: NO)	640	1.72	–
COc1c(CNCCCCCCNCc2cc(Cl)c3ccccc3c2OC)cc(Cl)c2ccccc12.CS(=O)(=O)O [TCMDC-137958]	0 (0: NO)	1180	4.62	–
COc1ccc(CCNCCCCNCCc2ccc(OC)c3ccccc23)c2ccccc12.CS(=O)(=O)O [TCMDC-137961]	0 (0: NO)	480	2.14	–
CCCCOc1c(CNCCCCCCNCc2ccc3ccccc3c2OCCCC)ccc2ccccc12.CS(=O)(=O)O [TCMDC-137975]	0 (0: NO)	1490	2.21	–
COc1ccccc1-c1nc2c(ccc3nc(N)nc(N)c32)[nH]1 [TCMDC-137976]	0 (0: NO)	1130	2.87	–
CCCN(CCC)CCCN(CCCN(CCC)CCC)c1cc(C)nc(Nc2ccc3cc(Br)ccc3c2)n1.Cl [TCMDC-138006]	0 (0: NO)	990	3.43	–
Cl.Clc1ccc(CNCCCCCCCNCc2ccc(Cl)c(Cl)c2)cc1Cl [TCMDC-138075]	0 (0: NO)	700	4.57	–
COc1cc2nc(N3CCC(CNC(=O)c4ccc(-c5ccc(-c6noc(C)n6)cc5C)cc4)CC3)nc(N)c2cc1OC [TCMDC-138155]	0 (0: NO)	1680	7.62	–
COc1ccc(N2CCN(CCCCNCc3ccc(NC(=O)c4cc(Cl)cc(Cl)c4)cc3)CC2)c(OC)c1 [TCMDC-138226]	0 (0: NO)	3110	4.42	–
COc1cc2nc(Nc3ccc4c(ccn4Cc4ccccc4)c3)nc(Nc3ccc4c(ccn4Cc4ccccc4)c3)c2cc1OC [TCMDC-138237]	0 (0: NO)	1580	14.13	–
CN(C)CCNCc1ccc(-c2ccc3c(Nc4ccc(Cl)cc4F)ccnc3c2)o1 [TCMDC-138391]	0 (0: NO)	1710	0.89	–
Fc1cc(Cl)ccc1Nc1ccnc2cc(-c3ccc(CN4CCOCC4)o3)ccc12 [TCMDC-138393]	0 (0: NO)	640	5.62	–
Cl.Fc1cc(Cl)ccc1Nc1ccnc2cc(-c3ccc(CN4CCNCC4)o3)ccc12 [TCMDC-138394]	0 (0: NO)	1910	12.05	–
CN(C)CCN(C)Cc1ccc(-c2ccc3c(Nc4ccc(Oc5ccccn5)cc4)ccnc3c2)o1 [TCMDC-138426]	0 (0: NO)	2050	5.37	–
CN(/N=C/C=C/c1ccc(Cl)cc1)c1nc(NCCc2ccc(O)cc2)nc(N2CCNCC2)n1 [TCMDC-138546]	0 (0: NO)	1960	13.18	–
O=c1c(NCCCN(Cc2ccc(F)cc2)c2ccccn2)c(NCc2cccnc2)c1=O [TCMDC-142311]	–	–	–	IC50 [3]: 360 nM; HepG2 cytoxicity ([4]; HepG2 value reported with the Pf FGAA screen): >100 µM; Is compound selective in assay? Pf FGAA active? ([5]; >10-fold selectivity over cytotox): 1 (1: YES)

From PMC6753678, “Fueling Open Innovation for Malaria Transmission-Blocking Drugs: Hundreds of Molecules Targeting Early Parasite Mosquito Stages” (Frontiers in Microbiology, 2019)
